Holding throughout (assay): NCI tumour cell line growth inhibition, 48 h
Test [1] concerns OVCAR-8 ovarian.
For test [2], the system named is U251 CNS.
Test [3] concerns SK-MEL-5 melanoma.
Test [4] relates to NCI-H226 lung.
Test [5] deals with KM12 colon.
The subject of test [6] is RXF 393 renal.
Test [7] has as its system MDA-MB-435.
For test [8], the system named is HOP-62 NSCLC.
The subject of test [9] is IGROV1 ovarian.
The test system of test [10] is HL-60(TB) leukemia.

The structures appear in SMILES notation.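 48-hour exposure; five concentrations; linearly interpolated endpoints. Abbreviation: GI50, concentration required for 50% inhibition of growth. At the TGI there is no net growth.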

Take `CC(O)=NC(Cc1ccc2ccccc2c1)C(O)=NC(Cc1ccc(Cl)cc1)C(O)=NC(Cc1c[nH]c2ccccc12)C(O)=NC(CO)C(O)=NC(Cc1ccc(O)cc1)C(O)=NC(CCCN=C(N)N)C(O)=NC(CC(C)C)C(O)=NC(CCCN=C(N)N)C(=O)N1CCCC1C(O)=NC(C)C(=N)O` (stereo not given): the TGI in [1] was more than 100 µM; in test [2], 61.4 µM; in [3], more than 100 µM; in [4], 80.7 µM; in test [5], more than 100 µM; in test [6], 92.2 µM. The TGI in test [7], in [8], in [9] and in test [10] was more than 100 µM throughout.
On to `CCOC(=O)[C@H]1C[C@]23CN(C(=O)OC(C)(C)C)CC[C@H]2CCC2(SCCCS2)[C@@H]3N1C`, for which the TGI in test [1] is more than 100 µM; in test [2] it was more than 100 µM; in [3], 37.4 µM; in test [4] it was more than 100 µM; in [5] it was more than 100 µM; in test [6], 99.7 µM. The TGI in test [7] is more than 100 µM; in [8], more than 100 µM; in [9], more than 100 µM; in test [10] it was 47.3 µM.
For `COc1c2ccoc2c(S(=O)(=O)Nc2ccc(Cl)cc2)c2oc(C)cc(=O)c12`, the TGI in test [1] was more than 100 µM; in [2], more than 100 µM; in [3], more than 100 µM; in test [4], more than 100 µM; in [5], more than 100 µM; in test [6], more than 89.1 µM. Also, the TGI in test [8] is more than 100 µM; in test [9], more than 100 µM; in test [10], more than 31.6 µM.
Take `OC1(c2ccc3ccccc3c2)c2ccc3ccccc3c2C2=NCCN21` (stereo not given): the TGI in test [1] was 82.2 µM; in test [2], more than 100 µM; in test [3], more than 100 µM; in test [5], more than 100 µM; in test [6], 98.5 µM; in test [7], more than 100 µM. In addition, the TGI in test [8] was 47.3 µM; in test [9] it was more than 100 µM; in [10] it was more than 100 µM.
As to `Cc1onc(-c2c(F)cccc2Cl)c1C(=O)N[C@@H]1C(=O)N2[C@@H]1SC(C)(C)[C@@H]2C(=O)O`, the TGI in test [1], in test [2], in test [3], in test [4], in [5] and in [6] was more than 100 µM in each case. The TGI in test [7], in test [8] and in test [9] was more than 100 µM each time.
As to `ClCC1(CCl)COC1`, the TGI in test [1], in test [2], in test [3], in test [4], in [5] and in [6] was more than 100 µM throughout. In addition, the TGI in [7] and in [10] was more than 100 µM each time.
As for `O=C(/N=C/c1c(O)c2ccccc2oc1=O)NC1CCCCC1`, the TGI in test [1], in test [3], in test [4], in [6], in test [8] and in [9] was more than 100 µM throughout. This compound returned a TGI in test [10] of more than 100 µM.
`COc1cc(NCc2ccc3n2-c2ccccc2OC3)cc(OC)c1OC`: the TGI in test [1] was more than 100 µM; in [2], more than 100 µM; in test [3], 32.3 µM; in test [4], more than 100 µM; in test [5], more than 100 µM; in [6] it was 87.5 µM. For the same compound, the TGI in test [7] is 33.8 µM; in test [8], more than 100 µM; in [9], 70.5 µM; in [10] it was 57.2 µM.
As to `CCCC(=O)OCC(O)CO` (stereo not given), the TGI in test [1], in [2], in test [3], in test [4], in test [5] and in test [6] was more than 5000 µM throughout. Further, the TGI in test [8], in test [9] and in test [10] was more than 5000 µM in each case.
For the compound `CCOc1ccc2c(c1)NC(=O)C(C1OC(c3ccccc3)=CC1=O)S2` (stereo not given), the TGI in test [1] is 55.7 µM; in test [2], 49.2 µM; in [3], 39.2 µM; in [4] it was 67.5 µM; in [5], 66.3 µM; in test [6], 42.8 µM. For the same compound, the TGI in test [7] was 44.4 µM; in test [8], more than 100 µM; in test [9], 53.2 µM; in test [10] it was more than 100 µM.
Consider `CO[C@]12C[C@H](CNC(=O)c3cc(Br)c(Br)[nH]3)O[C@H]1NC(=O)N2`, for which the TGI in test [1], in test [2], in [3], in test [4], in [5] and in test [7] was more than 100 µM in each case. Also, the TGI in test [8], in test [9] and in [10] was more than 100 µM throughout.
Take `CC[N+](CC)(CC)/C(=N/S(=O)(=O)c1cc(C)c(Cl)cc1S)[N-]S(=O)(=O)c1ccc(Cl)cc1`: the TGI in [1], in test [2], in [3], in [4], in test [5] and in [6] was more than 100 µM in each case. Moreover, the TGI in test [7], in test [8], in test [9] and in [10] was more than 100 µM throughout.
With `Cc1ccc(S(=O)(=O)NCCSS(=O)(=O)c2ccc(C)cc2)cc1`, the TGI in test [1] is more than 100 µM; in [2] it was 53.8 µM; in test [3], 43.1 µM; in [4], 49.6 µM; in test [5], 85.8 µM; in test [6] it was 99.3 µM. For the same compound, in test [7], the TGI amounted to 52 µM.
In the case of `CCCc1ccc(OCC(=O)N/N=C/c2c(-c3ccccc3)[nH]c3ccccc23)cc1`, the TGI in [1] is 53.4 µM; in test [2] it was 20.3 µM; in test [3], 20.8 µM; in test [4] it was 40.5 µM; in [5], 38.5 µM; in [6] it was 28.8 µM. Further, the TGI in test [7] came out at 8.74 µM; in test [8], 37.8 µM; in [9], 65.8 µM; in test [10], 23.8 µM.
Take `CS(=O)(=O)OCc1c(O)c2c(c(O)c1COS(C)(=O)=O)C(=O)C=CC2=O`: the TGI in test [1], in [2], in [3], in test [4], in test [5] and in test [8] was more than 100 µM each time. Moreover, the TGI in [9] and in test [10] was more than 100 µM each time.
For `C=C1C(=O)OC2/C=C(\C)CC(O)/C=C(/CO)CC(OC(=O)/C(C)=C/C)C12` (stereo not given), the TGI was 122 µM in test [1]; 303 µM in [2]; 44.1 µM in [3]; 91 µM in [4]; 229 µM in test [5]; 44.5 µM in test [6]. Besides, the figures for the TGI in [8], in [9] and in test [10] were 246 µM, 121 µM and 34.9 µM, respectively.
For the compound `C=CCC1=CC2(OC)C(=O)C(OC)(OC)C1C1C(OC)(OC)C(=O)C(OC)=CC12CC=C` (stereo not given), the TGI in test [1], in test [2], in test [3], in test [5], in [6] and in test [7] was more than 100 µM in each case. Also, the TGI in [8], in test [9] and in test [10] was more than 100 µM throughout.
Take `C[C@]12CC[C@H](O)CC1=CC[C@@H]1[C@@H]2CC[C@]2(C)C(=O)CC[C@@H]12`: the TGI in [1], in test [2], in [3], in test [4], in test [5] and in test [6] was more than 100 µM in each case. For the same compound, in [7], the TGI is more than 100 µM.
With `CC(C)Cc1cccc(C(C)C)c1NC(=O)CCC(=O)N/N=C1\C(=N/NC(=O)CCC(=O)Nc2c(C(C)C)cccc2C(C)C)C(c2ccc3c(c2)OCO3)Oc2ccccc21` (stereo not given), the TGI in test [1], in test [2], in test [3], in test [4], in test [5] and in [6] was more than 100 µM each time. Also, the TGI in [8], in test [9] and in test [10] was more than 100 µM each time.
On to `COc1ccc(-n2cc(-c3ccc(OC)c(OC)c3)nc2SCc2ccccc2)cc1Cl`, for which the GI50 in test [1] is 25.9 µM; in test [2], 22.4 µM; in test [3], 5.78 µM; in test [4], 40.4 µM; in test [5], 21.3 µM; in test [6], 16.9 µM. The GI50 was 27.8 µM in [7], 28.3 µM in test [8], 12.9 µM in test [9] and 12.9 µM in test [10]. Also, the TGI in [1] was more than 100 µM; in [2], more than 100 µM; in [3], 18.6 µM; in test [4], more than 100 µM; in test [5] it was 68.1 µM; in test [6], 82 µM. Also, the TGI in test [7] was more than 100 µM; in test [8] it was more than 100 µM; in test [9], more than 100 µM; in [10] it was 37.7 µM.
As to `FC(F)(F)C1=NC(=NNc2nnc(-c3ccccc3)c(-c3ccccc3)n2)N=C(C(F)(F)F)C1`, the TGI was more than 100 µM in [1]; more than 86.3 µM in test [2]; more than 66 µM in test [3]; more than 100 µM in test [4]; more than 100 µM in [5]; more than 100 µM in test [6]. The TGI in test [8] was more than 86.7 µM; in test [9], more than 100 µM; in test [10], 37.1 µM.
In the case of `C[C@H](O)C(=O)SC[C@H](NC(=O)CC[C@@H](N)C(=O)O)C(=O)NCC(=O)O`, the TGI in test [1], in [2], in [3], in [4], in test [5] and in test [6] was more than 100 µM in each case. For the same compound, the TGI in [8] and in test [9] was more than 100 µM in each case.
With `Oc1ccc2ccccc2c1Cc1c(O)ccc2ccccc12`, the TGI in test [1] was 36.9 µM; in test [2], 34.4 µM; in [3], 32.1 µM; in test [4], 45.5 µM; in [5], 43.9 µM; in [6] it was 36 µM. In addition, the TGI in test [7] came out at 31.5 µM; in test [8] it was 41.4 µM; in [9], 13.4 µM; in test [10], 38.7 µM.
As to `C[n+]1c(-c2ccc(/C=N\NC(=O)c3ccc(C(=O)N/N=C/c4ccc(-c5cn6ccsc6[n+]5C)cc4)cc3)cc2)cn2ccsc21`, the TGI turned out to be 40.8 µM in test [1]; 48.9 µM in test [2]; 34 µM in [3]; 44.1 µM in [4]; 58.2 µM in test [5]; 53.5 µM in test [6]. For the same compound, the TGI in test [7] worked out at 37.7 µM; in [8] it was 35.1 µM; in test [9] it was 40.7 µM; in test [10], 43.8 µM.
As to `O=c1cc(-c2nc3ccccc3[nH]2)[nH]c2nc(-c3nc4ccccc4[nH]3)cc(-c3ccc(Cl)cc3)c12`, the TGI in [1] was more than 100 µM; in test [2], 40 µM; in test [3] it was 30.9 µM; in test [4], 49.2 µM; in test [5] it was 64.4 µM; in test [6] it was 35.8 µM. Also, the TGI in [7] is 35.3 µM; in [8], 54.7 µM; in test [9], 25.5 µM; in test [10], 66.3 µM.
Turning to `CCOc1cc(NC(C)=O)ccc1C(=O)NN1C(=O)CSC1c1ccc(O)c(OC)c1` (stereo not given), the TGI in test [1], in [3], in [4], in [5], in test [6] and in [7] was more than 100 µM each time. For the same compound, the TGI in test [8], in [9] and in test [10] was more than 100 µM throughout.
